From EP1353624B1, “PHARMACEUTICAL COMPOSITIONS OF A NON-ENTERIC COATED PROTON PUMP INHIBITOR WITH A CARBONATE SALT AND BICARBONATE SALT COMBINATION” (TAP Pharmaceutical Products, Inc., priority 2000, dated 2002)
Several values for one entry are separate records, joined by “and”; a condition that tells them apart may be missing. Equal values may be shown once. Read-outs that look alike come from different tables or passages of the source.

Key:
[1] = Stability of lansoprazole in simulated gastric fluid (chromatographic assay); type: physicochemical; details: for % labeled amount of lansoprazole remaining: room temperature; for drug degraded: at 60 minutes in SGF
Procedure: Lansoprazole degrades in acid and is stable in base. This study was performed to determine 1) how quickly lansoprazole degrades in simulated gastric fluid (SGF); and 2) whether a high pH-buffering agent (carbicarb which is an equimolar mixture of sodium carbonate and sodium bicarbonate) could be used to retard the degradation of lansoprazole in SGF. All the experiments were conducted at room temperature (22°C ± 2°C).
The PPI test sample included lansoprazole (30 mg); mannitol (60 mg), meglumine (30 mg) and sodium hydroxide (3 mg).
Then 5.0 mL 2 N sodium hydroxide solution was added to the 0-minutes beaker with mixing. To each of the 5 remaining beakers, 10.0 mL of 8.4% carbicarb solution was added and stirred to mix. At the appropriate time interval (corresponding to the individual beaker numbers), 5.0 mL 2 N sodium hydroxide solution was added to stop the reaction. A portion of the resulting solution was diluted with pH 10 diluent. 10 µL of the resulting solution was then injected into the chromatographic system for assay.
Granular formulations of lansoprazole, including carbicarb were also made and tested. The stability of the granular formulations was tested according to the procedure of Example 3. The granular formulations of lansoprazole for this example were prepared as follows.
The coherent mass containing lansoprazole, carbicarb, lactose and sucrose solution was prepared as described above, in Example 3. This coherent mass was passed through a 20-mesh screen and the resulting granules were dried at 50°C for 12 hours. Granules containing 30-mg lansoprazole were transferred to an amber color container along with and an equal weight of flavor granules. 10 ml of water ((HPLC grade, Fisher Scientific, Pittsburgh, PA) was added to the container with gentle shaking to reconstitute the suspension. The resulting suspension of Lansoprazole was tested for stability in simulated gastric fluid as described earlier in Experiment 3.

[2] = Storage stability of granules (potency and related substances); type: physicochemical; details: granules of Examples 4 and 5; 22°C for 21 days in closed containers
Procedure: Additionally, the granules prepared in Examples 4 and 5 were kept at 22°C for 21 days in closed containers.

[3] = 50 mL SGF
Procedure: To determine and compare the gastric acid neutralizing capacity of sodium bicarbonate solution to carbicarb solution, the following experiment was performed.
(§1) Aqueous solutions to be tested were made up from starting materials sodium carbonate, (anhydrous, available from Mallinckrodt) and sodium bicarbonate (available from Mallinckrodt). An 8.4% sodium bicarbonate solution and an 8.4% carbicarb solution (containing equimolar amounts of sodium bicarbonate and sodium carbonate) were tested as follows.
50 mL simulated gastric fluid (SGF, prepared according to the procedure described in Example 1) was pipetted into an Erlenmeyer flask. Four drops of methyl red, then four drops of phenolphthalein were then added to the flask. The pH of solution was monitored with a pH electrode. The solution to be tested was added to a 5-mL buret. The gastric media in the flask was then titrated with the test solution to an endpoint within 0.2 pH units of pH 6.5 (as indicated by the color change and pH reading). Then, titration was resumed, to an endpoint within 0.2 pH units of pH 8.0 (as indicated by the color change and pH reading).

[4] = Excerpt: To quantify the gas produced by the neutralization of simulated gastric fluid (SGF) by carbicarb and by sodium bicarbonate in vitro, a standard CO2 assay technique was utilized (see USP 24 -NF 19 Beta, The United States Pharmacopeia 2000, p. 306)
as §1
The specimen gas was generated by reacting either 450 mL simulated gastric fluid (SGF) with 50 mL of the carbicarb solution; or by reacting 45 ml of simulated gastric fluid with 5 ml of sodium bicarbonate solution in a 500 mL Erlenmeyer flask.
To make Simulated Gastric Fluid (SGF) 1 g sodium chloride was transferred to a 500-mL volumetric flask. After adding 1.6 g pepsin, 25 mL 2 N hydrochloric acid was added and swirled to mix. The resultant solution could then be diluted to the appropriate volume with water.
The amount of gas generated in a twenty-minute time period was measured in an Orsat Glass Vapor Absorption Apparatus, by the standard assay technique. Two tests were run for each solution. The volume of CO2 generated was calculated from the difference in the initial volume of gas produced (ml) and the final volume of gas remaining (ml).

[5] = 45 mL SGF and 5 mL test solution, gas generated in twenty minutes
[6] = 450 mL SGF and 50 mL test solution, ten-fold scale-up of the 45 mL/5 mL run

Cc1c(OCC(F)(F)F)ccnc1C[S+]([O-])c1nc2ccccc2[nH]1 (stereo not shown) [lansoprazole]
% labeled amount of lansoprazole remaining ([1]; Sample in carbicarb solution, time in SGF 0 minutes): 98.0% | % labeled amount of lansoprazole remaining ([1]; Sample in carbicarb solution, time in SGF 5 minutes): 96.7% | % labeled amount of lansoprazole remaining ([1]; Sample in carbicarb solution, time in SGF 15 minutes): 97.4% | % labeled amount of lansoprazole remaining ([1]; Sample in carbicarb solution, time in SGF 30 minutes): 95.8% | % labeled amount of lansoprazole remaining ([1]; Sample in carbicarb solution, time in SGF 45 minutes): 94.4% | % labeled amount of lansoprazole remaining ([1]; Sample in carbicarb solution, time in SGF 60 minutes): 96.5% | % labeled amount of lansoprazole remaining ([1]; Sample in water, time in SGF 0 minutes): 99.5% | % labeled amount of lansoprazole remaining ([1]; Sample in water, time in SGF 5 minutes): 39.9% | % labeled amount of lansoprazole remaining ([1]; Sample in water, time in SGF 15 minutes): 10.1% | % labeled amount of lansoprazole remaining ([1]; Sample in water, time in SGF 30 minutes): 4.1% | % labeled amount of lansoprazole remaining ([1]; Sample in water, time in SGF 45 minutes): 2.7% | % labeled amount of lansoprazole remaining ([1]; Sample in water, time in SGF 60 minutes): 2.0% | time stable in simulated gastric fluid ([1]; administered with carbicarb into SGF): at least 60 minutes | degradation ([1]; administered with carbicarb into SGF, 60 minutes): < 5% | drug degraded ([1]; drug constituted with carbicarb solution): 3.5% | drug degraded ([1]; drug reconstituted with water): 98% | time stable in simulated gastric fluid ([1]; formulated with carbicarb as granules (Example 4)): at least 60 minutes | time stable in simulated gastric fluid ([1]; suspension reconstituted from lansoprazole/carbicarb granules (Example 5)): at least 60 minutes | stability on storage (potency and related substances) [2]: stable

O=C([O-])O.[Na+] [8.4% sodium bicarbonate solution, sodium bicarbonate]
Volume of Acid Neutralizer Solution Required ([3]; pH of simulated gastric fluid after adding neutralizer 1.2): 0 mL | Volume of Acid Neutralizer Solution Required ([3]; pH of simulated gastric fluid after adding neutralizer 2.0): 3.47 mL | Volume of Acid Neutralizer Solution Required ([3]; pH of simulated gastric fluid after adding neutralizer 3.0): 4.09 mL | Volume of Acid Neutralizer Solution Required ([3]; pH of simulated gastric fluid after adding neutralizer 4.0): 4.19 mL | Volume of Acid Neutralizer Solution Required ([3]; pH of simulated gastric fluid after adding neutralizer 5.0): 4.27 mL | Volume of Acid Neutralizer Solution Required ([3]; pH of simulated gastric fluid after adding neutralizer 6.0): 4.48 mL | Volume of Acid Neutralizer Solution Required ([3]; pH of simulated gastric fluid after adding neutralizer 7.0): 5.00 mL | Volume of Acid Neutralizer Solution Required ([3]; pH of simulated gastric fluid after adding neutralizer 8.0): 6.20 mL | volume added into the gastric media to reach the endpoint ([3]; titration endpoint (pH not given; method: pH 6.5, then pH 8.0)): 4.71 mL | Volume of CO2 ([4]; 45 mL SGF and 5 mL test solution, difference of initial and residual gas volume): 2.9 mL and 5.3 mL | Initial Gas Volume [4, 5]: 93.0 mL and 82.0 mL | Residual Gas Volume [4, 5]: 90.1 mL and 76.7 mL | Initial Gas Volume [4, 6]: 930.0 mL and 820.0 mL | Residual Gas Volume [4, 6]: 901.0 mL and 767.0 mL | Volume of CO2 [4, 6]: 29.0 mL and 53.0 mL
